Assay results taken from publication doi:10.1101/2023.04.18.537371v1 (bioRxiv, 2023).
Peptide text beside a SMILES is read from it.

Legend:
CYP2B6 = target: T1, CYP2B6 (Homo sapiens, UniProt P20813); experiment: biochemical; type: in vitro ADME
T1 sequence (P20813 1-491): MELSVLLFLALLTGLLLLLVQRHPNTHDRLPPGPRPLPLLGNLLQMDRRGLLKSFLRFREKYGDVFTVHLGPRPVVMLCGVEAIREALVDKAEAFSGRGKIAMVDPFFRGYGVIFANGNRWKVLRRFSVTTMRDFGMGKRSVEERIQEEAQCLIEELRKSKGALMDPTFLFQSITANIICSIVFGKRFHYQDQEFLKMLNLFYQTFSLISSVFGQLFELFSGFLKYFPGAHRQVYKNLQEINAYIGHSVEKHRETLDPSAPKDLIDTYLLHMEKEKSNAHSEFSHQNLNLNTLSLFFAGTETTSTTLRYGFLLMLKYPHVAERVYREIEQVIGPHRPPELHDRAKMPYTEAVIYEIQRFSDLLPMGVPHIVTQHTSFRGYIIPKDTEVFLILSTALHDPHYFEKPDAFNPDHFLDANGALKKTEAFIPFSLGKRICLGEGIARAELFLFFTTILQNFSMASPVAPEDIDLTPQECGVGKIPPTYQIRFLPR

CYP1A2 [1] = type: in vitro ADME; details: cryopreserved human hepatocytes, three donors, 0.100 to 15.0 μM, 48 h, 37°C
human hepatocytes = experiment: Concentration change of FC-12738 in the CYP induction assay; type: in vitro ADME; details: 24 hours, 37°C
[2] = In vitro protein binding, rapid equilibrium dialysis; type: in vitro ADME; details: SD, rat, plasma
beagle dog hepatocytes = experiment: Hepatocyte stability; type: in vitro ADME; details: 1.00 μM
MATE1 = MATE1 (Homo sapiens, UniProt Q96FL8); experiment: Transporter inhibition in HEK293 cells; type: in vitro ADME
MATE1, sequence (Q96FL8 whole entry): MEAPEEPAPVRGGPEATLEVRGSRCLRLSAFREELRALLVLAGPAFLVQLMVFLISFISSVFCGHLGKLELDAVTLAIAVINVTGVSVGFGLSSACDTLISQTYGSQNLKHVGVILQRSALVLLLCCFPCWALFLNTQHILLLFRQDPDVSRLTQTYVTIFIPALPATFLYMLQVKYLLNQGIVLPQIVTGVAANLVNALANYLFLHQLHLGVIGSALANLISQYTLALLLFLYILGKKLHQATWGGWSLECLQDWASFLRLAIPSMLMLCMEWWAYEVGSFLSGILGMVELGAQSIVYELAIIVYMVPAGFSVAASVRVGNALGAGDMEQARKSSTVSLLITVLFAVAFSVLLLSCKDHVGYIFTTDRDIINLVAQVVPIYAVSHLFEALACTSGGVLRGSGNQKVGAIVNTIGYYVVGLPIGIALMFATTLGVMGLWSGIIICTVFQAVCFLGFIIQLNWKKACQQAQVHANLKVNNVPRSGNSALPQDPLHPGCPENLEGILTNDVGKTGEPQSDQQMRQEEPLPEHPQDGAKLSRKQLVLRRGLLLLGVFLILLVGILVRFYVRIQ

Plasma stability = type: in vitro ADME, beagle dog
monkey hepatocytes = experiment: Metabolite identification in hepatocytes; type: in vitro ADME; details: cryopreserved monkey hepatocytes, FC-12738 10 μM, 37 °C, 240 min, LC-UV-MS
[3] = Metabolism of FC-12738 in SD rat urine, feces and bile; type: in vivo; details: SC 10 mg/kg FC-12738 single
CYP2C8 = target: T2, CYP2C8 (Homo sapiens, UniProt P10632); experiment: CYP450 inhibition assay; type: in vitro ADME
T2 sequence (P10632 1-490): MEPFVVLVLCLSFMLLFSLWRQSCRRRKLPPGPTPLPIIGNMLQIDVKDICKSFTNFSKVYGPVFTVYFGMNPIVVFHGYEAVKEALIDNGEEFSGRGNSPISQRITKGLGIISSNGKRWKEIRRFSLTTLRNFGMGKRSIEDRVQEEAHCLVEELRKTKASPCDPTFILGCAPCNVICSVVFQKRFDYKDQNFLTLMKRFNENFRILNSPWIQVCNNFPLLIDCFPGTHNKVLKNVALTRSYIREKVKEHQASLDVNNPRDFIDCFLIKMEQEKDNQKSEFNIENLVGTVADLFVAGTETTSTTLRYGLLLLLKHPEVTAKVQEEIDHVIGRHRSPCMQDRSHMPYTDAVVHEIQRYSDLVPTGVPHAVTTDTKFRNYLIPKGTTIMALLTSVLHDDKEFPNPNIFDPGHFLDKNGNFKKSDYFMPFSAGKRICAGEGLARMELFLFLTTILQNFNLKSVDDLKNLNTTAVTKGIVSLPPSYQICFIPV

[4] = In vitro protein binding, rapid equilibrium dialysis; type: in vitro ADME; details: human, plasma
CYP2C19 = CYP2C19 (Homo sapiens, UniProt P33261); experiment: CYP time-dependent inhibition assay; type: in vitro ADME
CYP2C19, sequence (P33261 whole entry): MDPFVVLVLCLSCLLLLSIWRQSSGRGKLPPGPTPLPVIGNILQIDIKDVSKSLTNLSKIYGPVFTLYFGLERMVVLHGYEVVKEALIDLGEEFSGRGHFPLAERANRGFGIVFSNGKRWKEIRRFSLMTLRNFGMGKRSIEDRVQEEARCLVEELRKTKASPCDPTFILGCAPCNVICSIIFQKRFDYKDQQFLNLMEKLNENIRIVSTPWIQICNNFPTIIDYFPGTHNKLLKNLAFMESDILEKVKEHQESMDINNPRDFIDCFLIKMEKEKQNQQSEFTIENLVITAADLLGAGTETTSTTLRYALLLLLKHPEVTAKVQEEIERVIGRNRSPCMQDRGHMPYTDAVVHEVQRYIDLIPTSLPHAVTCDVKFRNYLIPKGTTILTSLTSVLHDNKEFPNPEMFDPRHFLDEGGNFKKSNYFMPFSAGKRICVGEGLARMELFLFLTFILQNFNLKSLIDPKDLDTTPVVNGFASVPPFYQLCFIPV

CYP2D6 = CYP2D6 (Homo sapiens, UniProt P10635); experiment: CYP450 inhibition assay; type: in vitro ADME
CYP2D6, sequence (P10635 whole entry): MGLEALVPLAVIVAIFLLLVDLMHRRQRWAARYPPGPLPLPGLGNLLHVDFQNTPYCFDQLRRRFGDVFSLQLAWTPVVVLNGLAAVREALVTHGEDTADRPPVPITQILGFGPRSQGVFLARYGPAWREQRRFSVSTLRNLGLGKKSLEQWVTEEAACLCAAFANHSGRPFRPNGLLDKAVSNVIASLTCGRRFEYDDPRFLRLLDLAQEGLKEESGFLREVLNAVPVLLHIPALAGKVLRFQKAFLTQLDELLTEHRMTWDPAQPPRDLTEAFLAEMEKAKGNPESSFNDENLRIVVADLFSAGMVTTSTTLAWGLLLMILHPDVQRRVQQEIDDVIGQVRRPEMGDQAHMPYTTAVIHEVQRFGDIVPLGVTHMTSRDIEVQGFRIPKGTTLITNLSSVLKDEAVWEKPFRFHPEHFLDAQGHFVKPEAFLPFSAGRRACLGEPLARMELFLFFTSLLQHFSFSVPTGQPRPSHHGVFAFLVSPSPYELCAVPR

OAT3 = OAT3 (Homo sapiens, UniProt Q8TCC7); experiment: Transporter inhibition in HEK293 cells; type: in vitro ADME
OAT3, sequence (Q8TCC7 whole entry): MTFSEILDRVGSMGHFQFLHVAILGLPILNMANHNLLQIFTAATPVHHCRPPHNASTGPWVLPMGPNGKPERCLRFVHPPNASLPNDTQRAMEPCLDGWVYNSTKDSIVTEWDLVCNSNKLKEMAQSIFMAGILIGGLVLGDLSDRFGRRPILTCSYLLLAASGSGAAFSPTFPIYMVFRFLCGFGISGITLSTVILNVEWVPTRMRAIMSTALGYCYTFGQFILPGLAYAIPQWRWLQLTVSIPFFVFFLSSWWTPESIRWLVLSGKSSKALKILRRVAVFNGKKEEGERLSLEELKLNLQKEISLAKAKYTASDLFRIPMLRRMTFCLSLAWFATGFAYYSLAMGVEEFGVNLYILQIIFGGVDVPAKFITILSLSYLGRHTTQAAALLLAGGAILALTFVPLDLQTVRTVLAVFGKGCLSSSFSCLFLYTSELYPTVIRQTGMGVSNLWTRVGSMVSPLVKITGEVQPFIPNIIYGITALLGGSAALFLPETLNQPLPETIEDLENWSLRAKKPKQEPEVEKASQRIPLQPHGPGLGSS

CYP1A2 [5] = target: T3, CYP1A2 (Homo sapiens, UniProt P05177); experiment: biochemical; type: in vitro ADME
T3 sequence (P05177 1-516): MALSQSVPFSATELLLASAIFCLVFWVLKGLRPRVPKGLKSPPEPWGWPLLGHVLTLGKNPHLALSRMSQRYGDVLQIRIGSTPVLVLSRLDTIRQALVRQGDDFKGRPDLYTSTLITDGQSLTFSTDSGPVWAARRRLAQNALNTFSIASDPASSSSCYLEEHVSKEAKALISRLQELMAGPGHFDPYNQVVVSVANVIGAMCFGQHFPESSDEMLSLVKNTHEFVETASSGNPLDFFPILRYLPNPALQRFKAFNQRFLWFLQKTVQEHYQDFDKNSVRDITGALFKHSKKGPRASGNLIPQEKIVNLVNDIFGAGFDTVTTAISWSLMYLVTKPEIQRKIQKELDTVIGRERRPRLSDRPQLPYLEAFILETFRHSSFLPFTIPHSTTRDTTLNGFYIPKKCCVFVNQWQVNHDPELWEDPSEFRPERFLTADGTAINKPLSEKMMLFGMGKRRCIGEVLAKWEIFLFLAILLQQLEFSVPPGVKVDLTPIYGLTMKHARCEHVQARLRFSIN

[6] = cutoff IC50 shift >= 1.5-fold, 30 min pre-incubation ± NADPH

CC(C)[C@@H](NC(=O)[C@H](N)Cc1ccc(O)cc1)C(=O)N[C@H](CC(=O)O)C(=O)N[C@H](CCCCN)C(=O)N[C@H](CCCNC(=N)N)C(=O)O [FC-12738, (D-Tyr)-(D-Val)-(D-Asp)-(D-Lys)-(D-Arg)] (HELM PEPTIDE1{[dY].[dV].[dD].[dK].[dR]}$$$$V2.0)
IC50 (CYP2B6): > 100 µM | Induction of CYP1A2 (enzyme activity and gene expression) (CYP1A2 [1]): not considered as an inducer | % remaining (human hepatocytes; human hepatocytes Donor 1, 10.0 μM): 69.1% | % remaining (human hepatocytes; human hepatocytes Donor 2, 15.0 μM): 89.3% | % remaining (human hepatocytes; human hepatocytes Donor 3, 10.0 μM): 61.0% | fraction unbound at 6 h, 0.2 µM [2]: 0.482 | fraction unbound at 6 h, 2 µM [2]: 0.443 | fraction unbound at 6 h, 10 µM [2]: 0.493 | intrinsic clearance CLint(hep) (beagle dog hepatocytes; cryopreserved beagle dog hepatocytes, 37.0°C, 120 min): < 1.9 μL/min/10^6 cells | half-life (beagle dog hepatocytes; cryopreserved beagle dog hepatocytes, 37.0°C, 120 min, LC-MS/MS): > 6.212 h | hepatic clearance CLint(liver) (beagle dog hepatocytes; scaled from beagle dog hepatocytes): < 12.8 mL/min/kg | IC50 (MATE1): > 100 µM | half-life (Plasma stability; beagle dog plasma, 2.00 μM, 37.0 °C, up to 120 min): > 6.212 h | remaining at 10 min, 2 μM (Plasma stability; beagle, dog, plasma): 106% | remaining at 0.5 h, 2 μM (Plasma stability; beagle, dog, plasma): 105% | remaining at 1 h, 2 μM (Plasma stability; beagle, dog, plasma): 106% | remaining at 2 h, 2 μM (Plasma stability; beagle, dog, plasma): 101% | Relative Abundance (UV%) (monkey hepatocytes): 89.24% | Relative MS abundance (%Total) ([3]; male SD rat bile): 100.00% | Relative MS abundance (%Total) ([3]; male SD rat feces): 100.00% | Relative MS abundance (%Total) ([3]; male SD rat urine): 99.93% | IC50 (CYP2C8): > 100 µM | fraction unbound at 6 h, 0.2 µM [4]: 0.428 | fraction unbound at 6 h, 2 µM [4]: 0.47 | fraction unbound at 6 h, 10 µM [4]: 0.673 | IC50 (CYP2C19): > 100 µM | Time-dependent inhibition of CYP2C19 (CYP2C19; [6]): no time-dependent inhibition | IC50 (CYP2D6): > 100 µM | IC50 (OAT3): > 100 µM | IC50 (CYP1A2 [5]): > 100 µM | Time-dependent inhibition of CYP1A2 (CYP1A2 [5]; [6]): no time-dependent inhibition
